Assay results: article PMC8862572 (Bioorganic & medicinal chemistry, 2020)
Entries after “also recorded” stand apart in the source; their conditions may differ.

Columns and labels:
Recombinant human SphK1 [1] = biological target: T1, Recombinant human SphK1 (Homo sapiens, UniProt Q9NYA1); settings: compound 1.0 μM
Recombinant human SphK2 = biological target: T2, Recombinant human SphK2 (Homo sapiens, UniProt Q9NRA0); assay: Recombinant hSphK2 cell lysate assay; type: biochemical; settings: for SphK2 inhibition, in words: compound 0.3 μM; for inhibition at 0.3 µM: read-out: % SphK2 Inhibition
T2 sequence (Q9NRA0 1-654): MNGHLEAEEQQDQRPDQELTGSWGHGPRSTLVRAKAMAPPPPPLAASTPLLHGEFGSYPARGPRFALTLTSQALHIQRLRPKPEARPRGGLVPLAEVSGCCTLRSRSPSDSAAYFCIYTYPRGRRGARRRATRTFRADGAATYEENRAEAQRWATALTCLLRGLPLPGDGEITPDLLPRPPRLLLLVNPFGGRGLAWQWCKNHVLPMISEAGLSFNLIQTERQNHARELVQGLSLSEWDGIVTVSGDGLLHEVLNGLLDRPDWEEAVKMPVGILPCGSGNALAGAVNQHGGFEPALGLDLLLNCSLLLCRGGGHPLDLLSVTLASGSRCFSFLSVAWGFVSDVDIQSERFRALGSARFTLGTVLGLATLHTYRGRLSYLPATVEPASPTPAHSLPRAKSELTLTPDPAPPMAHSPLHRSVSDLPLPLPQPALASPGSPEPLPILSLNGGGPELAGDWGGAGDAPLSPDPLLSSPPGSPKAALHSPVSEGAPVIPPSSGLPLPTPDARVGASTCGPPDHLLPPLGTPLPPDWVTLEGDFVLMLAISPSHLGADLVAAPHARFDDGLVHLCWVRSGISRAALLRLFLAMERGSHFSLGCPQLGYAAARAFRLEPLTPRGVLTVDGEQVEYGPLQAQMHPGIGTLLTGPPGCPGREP

U937 cells = assay: U937 cell culture assay, S1P levels by LC-MS/MS; settings: 0.1 μM to 1.0 μM, 2.0 h incubation
Recombinant human SphK1 [2] = biological target: T1, Recombinant human SphK1; assay: biochemical; settings: read-out: % SphK1 Inhibition

T1 sequence (Q9NYA1 whole entry): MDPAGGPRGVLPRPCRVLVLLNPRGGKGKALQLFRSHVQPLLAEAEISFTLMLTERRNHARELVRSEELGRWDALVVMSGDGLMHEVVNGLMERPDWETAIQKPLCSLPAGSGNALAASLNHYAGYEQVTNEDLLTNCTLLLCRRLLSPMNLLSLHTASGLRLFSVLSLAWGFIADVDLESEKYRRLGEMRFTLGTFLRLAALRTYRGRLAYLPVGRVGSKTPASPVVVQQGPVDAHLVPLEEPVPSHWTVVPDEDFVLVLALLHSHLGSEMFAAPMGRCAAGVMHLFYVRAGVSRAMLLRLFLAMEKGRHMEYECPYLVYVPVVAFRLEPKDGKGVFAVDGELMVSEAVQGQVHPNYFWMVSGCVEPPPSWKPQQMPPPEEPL

| Structure (SMILES) | SphK1 inhibition, in words (Recombinant human SphK1 [1]) | SphK2 inhibition, in words (Recombinant human SphK2) | S1P levels in U937 cells (U937 cells) | inhibition at 1 µM (Recombinant human SphK1 [2]) | inhibition at 0.3 µM (Recombinant human SphK2) |
| --- | --- | --- | --- | --- | --- |
| CCCCCCCOc1ccc(CN2CCC[C@@H]2CO)cc1.Cl [12a, (R)-(1-(4-(heptyloxy)benzyl)pyrrolidin-2-yl)methanol] | poor SphK1 and 2 inhibition | poor SphK1 and 2 inhibition | – | – | – |
| Cl.OC[C@H]1CCCN1Cc1ccc(OCc2ccc(C(F)(F)F)cc2)cc1 [12e, (R)-(1-(4-((4-(trifluoromethyl)benzyl)oxy)benzyl)pyrrolidin-2-yl)methanol] | weak SphK inhibition | weak SphK inhibition | – | – | – |
| Cl.OC[C@H]1CCCN1Cc1ccc(Oc2ccccc2)cc1 [18a, (R)-(1-(4-phenoxybenzyl)pyrrolidin-2-yl)methanol] | poor SphK1 and 2 inhibition | poor SphK1 and 2 inhibition | – | – | – |
| CC(C)(C)c1cccc(Oc2ccc(CN3CCC[C@@H]3CO)cc2)c1.Cl [18b, (R)-(1-(4-(3-(tert-butyl)phenoxy)benzyl)pyrrolidin-2-yl)methanol] | minimal enzyme inhibition | minimal enzyme inhibition | – | – | – |
| Cl.OC[C@H]1CCCN1Cc1ccc(Oc2cccc(-c3ccccc3)c2)cc1 [18d, (R)-(1-(4-([1,1′-biphenyl]-3-yloxy)benzyl)pyrrolidin-2-yl)methanol] | minimal enzyme inhibition | minimal enzyme inhibition | – | – | – |
| CCCCCCCCCCc1ccc(CN2CCC[C@@H]2CO)cc1.Cl [22b, (R)-(1-(4-decylbenzyl)pyrrolidin-2-yl)methanol] | – | strong inhibitory activity | – | – | – |
| CCCCCCCCCCCCc1ccc(CN2CCC[C@@H]2CO)cc1.Cl [22d, (R)-(1-(4-dodecylbenzyl)pyrrolidin-2-yl)methanol] | – | strong inhibitory activity | decreased S1P levels; also recorded: concentration-dependent reduction of S1P levels | – | – |
| Cc1ccc(CCc2ccc(CN3CCC[C@@H]3CO)cc2)cc1 [22f, (R)-(1-(4-(4-methylphenethyl)benzyl)pyrrolidin-2-yl)methanol] | – | – | – | 4 ± 4% | 3 ± 5% |
| COc1ccc(CCc2ccc(CN3CCC[C@@H]3CO)cc2)cc1 [22g, (R)-(1-(4-(4-methoxyphenethyl)benzyl)pyrrolidin-2-yl)methanol] | – | – | – | 8 ± 7% | 2 ± 2% |
| CCCCCCCCCCCc1ccc(CN2CCC[C@@H]2COC(C)=O)cc1 [22h, (R)-(1-(4-undecylbenzyl)pyrrolidin-2-yl)methyl acetate] | – | – | – | 47 ± 6% | 26 ± 6% |
| Cc1cc(/C=C/c2ccc(C(C)(C)C)cc2)ccc1CN1CCC[C@@H]1CO [25a, (R,E)-(1-(4-(4-(tert-butyl)styryl)-2-methylbenzyl)pyrrolidin-2-yl)methanol] | – | – | – | 23 ± 3% | 0% |
| OC[C@H]1CCCN1Cc1ccc(/C=C/c2cccc(C(F)(F)F)c2)cc1 [25b, (R,E)-(1-(4-(3-(trifluoromethyl)styryl)benzyl)pyrrolidin-2-yl) methanol] | – | – | – | 45 ± 1% | 13 ± 5% |
| CCCc1ccc(CCc2ccc(CN3CCC[C@@H]3CO)cc2)cc1 [29a, (R)-(1-(4-(4-propylphenethyl)benzyl)pyrrolidin-2-yl)methanol] | – | – | – | 29 ± 8% | 3 ± 4% |
| CCCCc1ccc(CCc2ccc(CN3CCC[C@@H]3CO)cc2)cc1 [29b, (R)-(1-(4-(4-butylphenethyl)benzyl)pyrrolidin-2-yl)methanol] | – | – | – | 31 ± 4% | – |
| CCCCCc1ccc(CCc2ccc(CN3CCC[C@@H]3CO)cc2)cc1 [29c, (R)-(1-(4-(4-pentylphenethyl)benzyl)pyrrolidin-2-yl)methanol] | – | – | – | 36 ± 3% | 15 ± 5% |
